We go through two molecules from US5608084A, “Lactones with antioxidising and hypolipidaemic activity useful in the therapy of the atherosclerosis” (priority 1994, dated 1997).

One assay has as its system HepG2. The assay is described as follows: Incorporation of 14C-acetate in the lipidic classes in HepG2 cells (hypolipidaemic activity). It counts as cell-based, human. The conditions noted are these: for Incorporation of 14C-acetate: Cholesterol / Incorporation of 14C-acetate: Esters of Cholesterol / Incorporation of 14C-acetate: Fatty acids / Incorporation of 14C-acetate: Phospholipids / Incorporation of 14C-acetate: Triglycerides: per culture plate; for inhibition at 1 µM / inhibition at 10 µM: Homo sapiens, HepG2. The procedure: The hypolipidaemic activity of some lactones of general formula I has been evaluated in vitro by testing their influence on the synthesis of the cell lipids like cholesterol, fatty acids, triglycerides, phospholipids and esters of the cholesterol, described by Barnhard J. W. in Amer. J. Cardiol., 62, 52B-56B, (1988).
The synthesis of the lipids has been studied by incubating cells coming from a human hepatocarcinoma (HepG2-American Type Culture Collection) in presence of ^14 C-acetate (Amersham) and by measuring the incorporation of the radioactive precursor in the main lipidic classes by means of chromatographic separation on silica gel (Merck F254), according to the method described by Skipski V. P. et al. in Biochem. Biophys. Acta, 106, 386-396, (1965) and by means of scintillographic dosage with β-counter Beckman scintillator, according to the method reported by Gherardi E. and Calandra S. in Lipids, 15, 108-112, (1980).
The data reported in tables 4 and 5 refer to the incorporation of ^14 C-acetate in the various lipidic classes, expressed as radioactivity in count per minute (cpm) for culture plate, for some lactones, in comparison with the probucol and the gemfibrozil, used as positive controls and with the solvent ethanol, used as negative control.
The percents in brackets express the lowering of the ^14 C-acetate in the various lipidic classes referred to the control, i.e. to the physiological solution. […] The confluence cells have been exposed to the products tested for 24 hours; at the end of the incubation the monolayer has been solubilized and the optical density of the lysate at λ260 nm has been measured. The value of the absorbance is direct function of the amount of the macromolecules present and therefore indirectly of the number of the cells.

A further assay has as its system men and women. The settings on record: considerable amounts of Vitamin E; cited from earlier work.
Another assay deals with LDL. The settings on record: in vitro, LDL incubated with antioxidizer; cited from earlier work.

Read-outs that look alike come from different tables or passages of the source.

On to `Cc1ccc(C)c(OCCCC(C)(C)C(=O)O)c1` [Gemfibrozil, reference compound], for which the “influence on the synthesis of the triglycerides” value in the assay with HepG2 was “remarkable activity”. Moreover, the “Incorporation of 14C-acetate: Cholesterol” value came to 20820 cpm with HepG2 (1 μM) and 25306 cpm in the assay with HepG2 (10 μM). The “Incorporation of 14C-acetate: Esters of Cholesterol” value in the assay with HepG2 (1 μM) is 968 cpm; with HepG2 (10 μM) it was 1156 cpm. For the same molecule, the “Incorporation of 14C-acetate: Fatty acids” value in the assay on HepG2 (1 μM) was determined as 299 cpm; in the assay with HepG2 (10 μM), 376 cpm. In addition, the “Incorporation of 14C-acetate: Phospholipids” value in the assay with HepG2 (1 μM) was determined as 132598 cpm; with HepG2 (10 μM) it was 164252 cpm. Moreover, the “Incorporation of 14C-acetate: Triglycerides” value in the assay on HepG2 (1 μM) was 84593 cpm; with HepG2 (10 μM), 96533 cpm. Besides, the inhibition at 1 µM in the assay with HepG2 (1 μM, read-out: Incorporation of 14C-acetate: Cholesterol, percent referred to physiological solution) turned out to be 34%; with HepG2 (1 μM, read-out: Incorporation of 14C-acetate: Esters of Cholesterol, percent referred to physiological solution), 76%; in the assay with HepG2 (1 μM, read-out: Incorporation of 14C-acetate: Fatty acids, percent referred to physiological solution), 55%; with HepG2 (1 μM, read-out: Incorporation of 14C-acetate: Phospholipids, percent referred to physiological solution) it was 47%; in the assay with HepG2 (1 μM, read-out: Incorporation of 14C-acetate: Triglycerides, percent referred to physiological solution), 22%. The inhibition at 10 µM in the assay with HepG2 (10 μM, read-out: Incorporation of 14C-acetate: Cholesterol, percent referred to physiological solution) worked out at 20%; with HepG2 (10 μM, read-out: Incorporation of 14C-acetate: Esters of Cholesterol, percent referred to physiological solution), 71%; in the assay with HepG2 (10 μM, read-out: Incorporation of 14C-acetate: Fatty acids, percent referred to physiological solution) it was 44%; in the assay on HepG2 (10 μM, read-out: Incorporation of 14C-acetate: Phospholipids, percent referred to physiological solution), 34%; in the assay with HepG2 (10 μM, read-out: Incorporation of 14C-acetate: Triglycerides, percent referred to physiological solution), 11%. Besides, the “activity as regards the synthesis of the esters of the cholesterol” value with HepG2 (summary of Table 4) is listed as 70-75%.
Take Vitamin E: the “risk of vascular pathologies” value in the assay with men and women is on record as “lowering of the risk of vascular pathologies”. In addition, the “atherogenic potentialities of the LDL” value in the assay on LDL is on record as “remarkably lowered”.
